# In paper PMC9471048, “The signaling and selectivity of α‐adrenoceptor agonists for the human α2A, α2B and α2C‐adrenoceptors and comparison with human α1 and β‐adrenoceptors” (Pharmacology Research & Perspectives, 2022):
# Read-outs that look alike come from different tables or passages of the source.
# Key:
# human α2A‐adrenoceptor [1] = target: T1, human α2A‐adrenoceptor (Homo sapiens, UniProt P08913)
# T1 sequence (P08913 1-465): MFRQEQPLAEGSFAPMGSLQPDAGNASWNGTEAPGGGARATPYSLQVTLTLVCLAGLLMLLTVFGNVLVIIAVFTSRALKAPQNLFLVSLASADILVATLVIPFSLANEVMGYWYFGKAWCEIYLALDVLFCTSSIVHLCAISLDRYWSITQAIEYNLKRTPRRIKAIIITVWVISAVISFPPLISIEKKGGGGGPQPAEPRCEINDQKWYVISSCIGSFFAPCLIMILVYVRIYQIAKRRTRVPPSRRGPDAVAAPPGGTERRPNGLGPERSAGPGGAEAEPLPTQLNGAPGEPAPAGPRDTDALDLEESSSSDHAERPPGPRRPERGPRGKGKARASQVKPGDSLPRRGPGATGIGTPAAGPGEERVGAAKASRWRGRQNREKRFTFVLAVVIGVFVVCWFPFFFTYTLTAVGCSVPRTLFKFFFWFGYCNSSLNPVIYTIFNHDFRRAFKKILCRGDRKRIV
# human α2A‐adrenoceptor [2] = target: T1, human α2A‐adrenoceptor; test: ERK1/2‐phosphorylation in CHO‐α2A cells; format: cell-based; design: expressed in transfected cells; host or cells: CHO-K1 with CRE-SPAP reporter
# human α2C‐adrenoceptor [3] = target: T2, human α2C‐adrenoceptor (Homo sapiens, UniProt P18825); test: ERK1/2‐phosphorylation in CHO‐α2C cells; format: cell-based; design: expressed in transfected cells; host or cells: CHO-K1 with CRE-SPAP reporter
# T2 sequence (P18825 1-462): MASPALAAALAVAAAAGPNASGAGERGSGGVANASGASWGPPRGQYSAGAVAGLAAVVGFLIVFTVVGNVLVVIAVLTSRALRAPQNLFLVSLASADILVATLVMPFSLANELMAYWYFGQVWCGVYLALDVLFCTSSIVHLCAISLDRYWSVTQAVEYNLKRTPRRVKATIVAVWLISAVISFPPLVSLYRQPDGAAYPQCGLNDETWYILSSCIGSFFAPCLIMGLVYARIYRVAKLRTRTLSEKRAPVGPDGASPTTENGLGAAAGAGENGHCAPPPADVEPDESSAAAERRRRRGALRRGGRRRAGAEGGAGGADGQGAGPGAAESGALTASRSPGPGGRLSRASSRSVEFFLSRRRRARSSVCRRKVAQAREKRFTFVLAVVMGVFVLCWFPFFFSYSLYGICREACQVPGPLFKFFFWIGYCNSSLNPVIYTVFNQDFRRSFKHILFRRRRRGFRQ
# human α2C‐adrenoceptor [4] = target: T2, human α2C‐adrenoceptor
# human α2C‐adrenoceptor [5] = target: T2, human α2C‐adrenoceptor; test: 3H‐rauwolscine whole cell binding in CHO‐α2C cells; design: expressed in transfected cells; host or cells: CHO-K1 with CRE-SPAP reporter
# human α2A‐adrenoceptor [6] = target: T1, human α2A‐adrenoceptor; test: 3H‐rauwolscine whole cell binding in CHO‐α2A cells; design: expressed in transfected cells; host or cells: CHO-K1 with CRE-SPAP reporter
# [7] = CHO‐α2C cells, CRE‐SPAP production in the absence of forskolin
compound,measurement,setting,value
C=CCc1ccccc1OC(C)C1=NCCN1 (stereo not drawn) [Allyphenyline],"% inhibition, CRE‐SPAP (with forskolin)",human α2A‐adrenoceptor [1],50.6 ± 6.3%
same,"% 10 μM PDBu, ERK1/2‐phosphorylation",human α2A‐adrenoceptor [2],127.1 ± 13.0%
same,"% 10 μM PDBu, ERK1/2‐phosphorylation",human α2C‐adrenoceptor [3],134.5 ± 17.9%
same,EC50,human α2C‐adrenoceptor [3],11.7 nM
same,"% inhibition, CRE‐SPAP (with forskolin)",human α2C‐adrenoceptor [4],66.8 ± 4.7%
same,IC50,human α2C‐adrenoceptor [4],63.1 nM
same,"Log EC50 (Gs), CRE‐SPAP (without forskolin)",human α2C‐adrenoceptor [4],No response
same,Kd,human α2C‐adrenoceptor [5],214 nM
same,Kd,"human α2C‐adrenoceptor [5]; Log KD, CHO‐α2C",214 nM
CCC1(c2cnc[nH]2)Cc2ccccc2C1 [Atipamezole],"Log EC50 (Gs), CRE‐SPAP (without forskolin)","human α2A‐adrenoceptor [1]; CHO‐α2A (cell line 1), absence of forskolin",No response
same,"Log IC50 (Gi), CRE‐SPAP (with forskolin)","human α2A‐adrenoceptor [1]; CHO‐α2A (cell line 1, 5830 fmol/mg protein), 3 μM forskolin",No response
same,"% 10 μM PDBu, ERK1/2‐phosphorylation",human α2A‐adrenoceptor [2],42.4 ± 5.9%
same,EC50,"human α2A‐adrenoceptor [2]; CHO‐α2A, read-out: Log EC50, ERK1/2‐phosphorylation (converted)",28.8 nM
same,"% 10 μM PDBu, ERK1/2‐phosphorylation",human α2C‐adrenoceptor [3],63.7 ± 8.3%
same,EC50,"human α2C‐adrenoceptor [3]; CHO‐α2C cells, given as negative log EC50, mean ± SEM, read-out: Log EC50, ERK1/2‐phosphorylation (converted)",8.32 nM
same,"% inhibition, CRE‐SPAP (with forskolin)",human α2C‐adrenoceptor [4],15.8 ± 7.5%
same,IC50,human α2C‐adrenoceptor [4],200 nM
same,Log efficacy ratio (KD/IC50),human α2C‐adrenoceptor [4],−1.78
same,"Log EC50 (Gs), CRE‐SPAP (without forskolin)",human α2C‐adrenoceptor [4]; [7],No response
C=CCN1CCc2nc(N)sc2CC1 [BHT920],"% 10 μM PDBu, ERK1/2‐phosphorylation",human α2C‐adrenoceptor [3],144.8 ± 23.2%
same,"Log EC50, ERK1/2‐phosphorylation",human α2C‐adrenoceptor [3],−8.18 ± 0.12
same,"% inhibition, CRE‐SPAP (with forskolin)",human α2C‐adrenoceptor [4],86.8 ± 6.0%
same,"Log EC50 (Gs), CRE‐SPAP (without forskolin)",human α2C‐adrenoceptor [4],No response
same,"Log IC50 (Gi), CRE‐SPAP (with forskolin)",human α2C‐adrenoceptor [4],−7.41 ± 0.10
same,Log efficacy ratio (KD/IC50),human α2C‐adrenoceptor [4],1.42
same,Log KD,human α2C‐adrenoceptor [5],−5.99
CCN1CCc2nc(N)oc2CC1 [BHT933],"% 10 μM PDBu, ERK1/2‐phosphorylation","human α2C‐adrenoceptor [3]; CHO‐α2C cells, maximum response compared to 10 μM PDBu, mean ± SEM",150.0 ± 19.7%
same,"Log EC50, ERK1/2‐phosphorylation","human α2C‐adrenoceptor [3]; CHO‐α2C cells, given as negative log EC50, mean ± SEM",−6.63 ± 0.18
same,Log efficacy ratio (KD/IC50),human α2C‐adrenoceptor [4],0.62
same,"% inhibition, CRE‐SPAP (with forskolin)","human α2C‐adrenoceptor [4]; CHO‐α2C cells, % inhibition from the 3 μM forskolin control, mean ± SEM",86.0 ± 4.6%
same,"Log EC50 (Gs), CRE‐SPAP (without forskolin)",human α2C‐adrenoceptor [4]; [7],No response
same,"Log IC50 (Gi), CRE‐SPAP (with forskolin)","human α2C‐adrenoceptor [4]; CHO‐α2C cells, inhibition of 3 μM forskolin‐stimulated CRE‐SPAP production, given as negative log IC50, mean ± SEM",−5.94 ± 0.08
same,Log KD,"human α2C‐adrenoceptor [5]; CHO‐α2C cells, 3H‐rauwolscine whole cell binding, given as negative log KD, mean only (SEM in Table 4)",−5.32
CC(Cc1ccc(O)cc1)NCC(O)c1cc(O)cc(O)c1 (stereo not drawn) [Fenoterol],"Log EC50 (Gs), CRE‐SPAP (without forskolin)",human α2A‐adrenoceptor [1],No response
same,"Log IC50 (Gi), CRE‐SPAP (with forskolin)",human α2A‐adrenoceptor [1],No response
same,"Log EC50 (Gs), CRE‐SPAP (without forskolin)",human α2C‐adrenoceptor [4],No response
same,"Log IC50 (Gi), CRE‐SPAP (with forskolin)",human α2C‐adrenoceptor [4],No response
same,Kd,human α2C‐adrenoceptor [5]; Log KD,151000 nM
same,Kd,"human α2C‐adrenoceptor [5]; Log KD (apparent), CHO‐α2C",151000 nM
same,Kd,"human α2A‐adrenoceptor [6]; Log KD (apparent), CHO‐α2A",347000 ± 5010 nM
same,Kd,human α2A‐adrenoceptor [6]; Log KD (binding),347000 nM
COc1ccc(CC(C)NCC(O)c2ccc(O)c(NC=O)c2)cc1 (stereo not drawn) [Formoterol],"Log EC50 (Gs), CRE‐SPAP (without forskolin)",human α2A‐adrenoceptor [1],No response
same,"Log IC50 (Gi), CRE‐SPAP (with forskolin)",human α2A‐adrenoceptor [1],No response
same,"Log EC50 (Gs), CRE‐SPAP (without forskolin)",human α2C‐adrenoceptor [4],No response
same,"Log IC50 (Gi), CRE‐SPAP (with forskolin)",human α2C‐adrenoceptor [4],No response
same,IC50,human α2C‐adrenoceptor [5],> 100000 nM
same,IC50,"human α2C‐adrenoceptor [5]; read-out: IC50 in binding, CHO‐α2C",> 100000 nM
same,IC50,human α2A‐adrenoceptor [6],> 100000 nM
same,IC50,"human α2A‐adrenoceptor [6]; read-out: IC50 in binding, CHO‐α2A",> 100000 nM
CC(C)NCC(O)c1ccc(O)c(O)c1 (stereo not drawn) [Isoprenaline],"% 10 μM PDBu, ERK1/2‐phosphorylation",human α2C‐adrenoceptor [3],130.7 ± 11.1%
same,"% inhibition, CRE‐SPAP (with forskolin)",human α2C‐adrenoceptor [4],95.0 ± 5.2%
Cc1cccc(C(C)c2cnc[nH]2)c1C (stereo not drawn) [Medetomidine],"% 3 μM forskolin, CRE‐SPAP (without forskolin)",human α2A‐adrenoceptor [1],23.1 ± 4.7%
same,"% 10 μM PDBu, ERK1/2‐phosphorylation",human α2A‐adrenoceptor [2],114.1 ± 9.3%
same,"% 10 μM PDBu, ERK1/2‐phosphorylation",human α2C‐adrenoceptor [3],159.3 ± 16.4%
same,EC50,"human α2C‐adrenoceptor [3]; read-out: Log EC50, ERK1/2‐phosphorylation (converted)",0.195 nM
same,"% inhibition, CRE‐SPAP (with forskolin)",human α2C‐adrenoceptor [4],86.4 ± 2.1%
same,"Log EC50 (Gs), CRE‐SPAP (without forskolin)",human α2C‐adrenoceptor [4],No response
same,IC50,"human α2C‐adrenoceptor [4]; Log IC50 (Gi), CRE‐SPAP (with forskolin)",0.513 nM
same,Kd,human α2C‐adrenoceptor [5]; read-out: Log KD (converted),32.4 nM
same,Kd,"human α2C‐adrenoceptor [5]; read-out: Log KD, CHO‐α2C (converted)",32.4 nM
